# In patent US20230203043A1, “NOVEL IMIDAZOPYRAZINE DERIVATIVES” (Hoffmann-La Roche Inc., priority 2020, published 2023):
# Where a name gives a salt, the structure may show the parent alone.
# Tested on: Acinetobacter baumannii ATCC17961
# Assay: Antimicrobial susceptibility testing: 90% growth inhibitory concentration (IC90) determination in Iso-Sensitest broth, OD600 growth
# Assay type: cell-based
# Details: Acinetobacter baumannii, ATCC17961, 16 h, read-out: A. baumannii ATCC 17961 IC90 (uM), strain ATCC 17961, OD600 growth over 16 h
# Procedure, shortened: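 Growth monitored at 600 nm every 20 min for 16 h at 35±2 °C, inoculum ~5×10^(5) CFU/ml in Iso-Sensitest medium. Compounds in 10-point twofold series, e.g. 50 to 0.097 μM final; 90% inhibitory concentration taken from log-phase growth.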
row,SMILES,IC90 [µM]
1,"N#CCn1cc(-c2cnc3c(Nc4ccc(C(=O)N5CCN(C(=O)C6CC(N)C6)CC5)c(Cl)c4)nccn23)c(C(F)(F)F)n1 (stereo not shown) [Example 189, 2-[4-[8-[4-[4-(3-aminocyclobutanecarbonyl)piperazine-1-carbonyl]-3-chloroanilino]imidazo[1,2-a]pyrazin-3-yl]-3-(trifluoromethyl)pyrazol-1-yl]acetonitrile formate]",0.204
2,"N#CCn1cc(-c2cnc3c(Nc4ccc(C(=O)N5CCN(C(=O)[C@H]6CC[C@@H](N)C6)CC5)c(Cl)c4)nccn23)c(C(F)(F)F)n1 [Example 192, 2-[4-[8-[4-[4-[(1S,3R)-3-aminocyclopentanecarbonyl]piperazine-1-carbonyl]-3-chloroanilino]imidazo[1,2-a]pyrazin-3-yl]-3-(trifluoromethyl)pyrazol-1-yl]acetonitrile formate]",0.208
3,"CCc1cc(Nc2nccn3c(-c4c[nH]nc4C(F)(F)F)cnc23)ccc1C(=O)NCCCNC(=O)NCCN [Example 193, N-[3-(2-aminoethylcarbamoylamino)propyl]-2-ethyl-4-[[3-[3-(trifluoromethyl)-1H-pyrazol-4-yl]imidazo[1,2-a]pyrazin-8-yl]amino]benzamide formate]",0.244
4,"CCc1cc(Nc2nccn3c(-c4c[nH]nc4C(F)(F)F)cnc23)ccc1C(=O)NCCCNC(=O)[C@@H](N)CCCCN [Example 195, N-[3-[[(2S)-2,6-diaminohexanoyl]amino]propyl]-2-ethyl-4-[[3-[3-(trifluoromethyl)-1H-pyrazol-4-yl]imidazo[1,2-a]pyrazin-8-yl]amino]benzamide formate]",0.331
5,"N#CCn1cc(-c2cnc3c(Nc4ccc(C(=O)NC5CCC(N)CC5)c(Cl)c4)nccn23)c(C(F)(F)F)n1 (stereo not shown) [Example 199, N-(4-aminocyclohexyl)-2-chloro-4-[[3-[1-(cyanomethyl)-3-(trifluoromethyl)pyrazol-4-yl]imidazo[1,2-a]pyrazin-8-yl]amino]benzamide formate]",0.336
6,"N[C@H]1CN[C@H](C(=O)N2CCN(C(=O)c3ccc(Nc4nccn5c(-c6c[nH]nc6C(F)(F)F)cnc45)cc3Cl)CC2)C1 [Example 200, [4-[(2S,4R)-4-aminopyrrolidine-2-carbonyl]piperazin-1-yl]-[2-chloro-4-[[3-[3-(trifluoromethyl)-1H-pyrazol-4-yl]imidazo[1,2-a]pyrazin-8-yl]amino]phenyl] methanone formate]",0.372
7,"N#CCn1cc(-c2cnc3c(Nc4ccc(C(=O)NOCCN)c(Cl)c4)nccn23)c(C(F)(F)F)n1 [Example 201, N-(2-aminoethoxy)-2-chloro-4-[[3-[1-(cyanomethyl)-3-(trifluoromethyl)pyrazol-4-yl]imidazo[1,2-a]pyrazin-8-yl]amino]benzamide formate]",0.486
8,"N=C(N)NC[C@H](N)C(=O)NCCCNC(=O)c1ccc(Nc2nccn3c(-c4c[nH]nc4C(F)(F)F)cnc23)cc1Cl [Example 211, N-[3-[[(2S)-2-amino-3-carbamimidamidopropanoyl]amino]propyl]-2-chloro-4-[[3-[3-(trifluoromethyl)-1H-pyrazol-4-yl]imidazo[1,2-a]pyrazin-8-yl]amino]benzamide formate]",0.284
9,"CCc1cc(Nc2nccn3c(-c4c[nH]nc4C(F)(F)F)cnc23)ccc1C(=O)NCCCNC(=O)CCN [Example 212, N-[3-(3-aminopropanoylamino)propyl]-2-ethyl-4-[[3-[3-(trifluoromethyl)-1H-pyrazol-4-yl]imidazo[1,2-a]pyrazin-8-yl]amino]benzamide formate]",0.296

# Same assay, conditions: Acinetobacter baumannii, ATCC17961, 16 h, strain ATCC 17961, OD600 growth over 16 h, read-out: A. baumannii ATCC 17961 IC90
row,IC90 [µM],SMILES
1,0.197,"C[C@@H](N)C(=O)N1CCN(C(=O)c2ccc(Nc3nccn4c(-c5cn(CC#N)nc5C(F)(F)F)cnc34)cc2Cl)CC1 [Example 188, 2-[4-[8-[4-[4-[(2R)-2-aminopropanoyl]piperazine-1-carbonyl]-3-chloroanilino]imidazo[1,2-a]pyrazin-3-yl]-3-(trifluoromethyl)pyrazol-1-yl]acetonitrile]"
2,0.245,"N#CCn1cc(-c2cnc3c(Nc4ccc(C(=O)N5CCN(C(=O)[C@H]6CCNC6)CC5)c(Cl)c4)nccn23)c(C(F)(F)F)n1 [Example 190, 2-[4-[8-[3-chloro-4-[4-[(3S)-pyrrolidine-3-carbonyl]piperazine-1-carbonyl]anilino]imidazo[1,2-a]pyrazin-3-yl]-3-(trifluoromethyl)pyrazol-1-yl]acetonitrile]"
3,0.276,"N#CCn1cc(-c2cnc3c(Nc4ccc(C(=O)N5CCN(C(=O)[C@@H]6CCNC6)CC5)c(Cl)c4)nccn23)c(C(F)(F)F)n1 [Example 191, 2-[4-[8-[3-chloro-4-[4-[(3R)-pyrrolidine-3-carbonyl]piperazine-1-carbonyl]anilino]imidazo[1,2-a]pyrazin-3-yl]-3-(trifluoromethyl)pyrazol-1-yl]acetonitrile]"
4,0.274,"N#CCn1cc(-c2cnc3c(Nc4ccc(C(=O)N5CCN(C(=O)[C@@H]6CC[C@H](N)C6)CC5)c(Cl)c4)nccn23)c(C(F)(F)F)n1 [Example 194, 2-[4-[8-[4-[4-[(1R,3S)-3-aminocyclopentanecarbonyl]piperazine-1-carbonyl]-3-chloroanilino]imidazo[1,2-a]pyrazin-3-yl]-3-(trifluoromethyl)pyrazol-1-yl]acetonitrile formate]"
5,0.674,"C=CCNCCCNC(=O)c1ccc(Nc2nccn3c(-c4c[nH]nc4C(F)(F)F)cnc23)cc1CC [Example 196, 2-ethyl-N-[3-(prop-2-enylamino)propyl]-4-[[3-[3-(trifluoromethyl)-1H-pyrazol-4-yl]imidazo[1,2-a]pyrazin-8-yl]amino]benzamide]"
6,0.16,"O=C(c1ccc(Nc2nccn3c(-c4c[nH]nc4C(F)(F)F)cnc23)cc1Cl)N1CCN(C(=O)[C@@H]2CCNC2)CC1 [Example 197, [2-chloro-4-[[3-[3-(trifluoromethyl)-1H-pyrazol-4-yl]imidazo[1,2-a]pyrazin-8-yl]amino]phenyl]-[4-[(3R)-pyrrolidine-3-carbonyl]piperazin-1-yl]methanone]"
7,0.216,"O=C(c1ccc(Nc2nccn3c(-c4c[nH]nc4C(F)(F)F)cnc23)cc1Cl)N1CCN(C(=O)[C@H]2CCCN2)CC1 [Example 198, [2-chloro-4-[[3-[3-(trifluoromethyl)-1H-pyrazol-4-yl]imidazo[1,2-a]pyrazin-8-yl]amino]phenyl]-[4-[(2R)-pyrrolidine-2-carbonyl]piperazin-1-yl]methanone]"
8,0.109,"N#CCn1cc(-c2cnc3c(Nc4ccc(C(=O)N5CCC(N)CC5)c(Cl)c4)nccn23)c(C(F)(F)F)n1 [Example 202, 2-[4-[8-[4-(4-aminopiperidine-1-carbonyl)-3-chloroanilino]imidazo[1,2-a]pyrazin-3-yl]-3-(trifluoromethyl)pyrazol-1-yl]acetonitrile]"
9,0.102,"CCc1cc(Nc2nccn3c(-c4c[nH]nc4C(F)(F)F)cnc23)ccc1C(=O)NCCOC[C@H](C)N [Example 203, N-[2-[(2S)-2-aminopropoxy]ethyl]-2-ethyl-4-[[3-[3-(trifluoromethyl)-1H-pyrazol-4-yl]imidazo[1,2-a]pyrazin-8-yl]amino]benzamide]"
10,0.256,"CCc1cc(Nc2nccn3c(-c4c[nH]nc4C(F)(F)F)cnc23)ccc1C(=O)NCCOC[C@@H](C)N [Example 204, N-[2-[(2R)-2-aminopropoxy]ethyl]-2-ethyl-4-[[3-[3-(trifluoromethyl)-1H-pyrazol-4-yl]imidazo[1,2-a]pyrazin-8-yl]amino]benzamide]"
11,0.256,"CCOCCCNC(=O)c1ccc(Nc2nccn3c(-c4cn(CC#N)nc4C(F)(F)F)cnc23)cc1CC [Example 205, 4-[[3-[1-(cyanomethyl)-3-(trifluoromethyl)pyrazol-4-yl]imidazo[1,2-a]pyrazin-8-yl]amino]-N-(3-ethoxypropyl)-2-ethylbenzamide]"
12,0.169,"C[C@H](N)C(=O)N1CCN(C(=O)c2ccc(Nc3nccn4c(-c5c[nH]nc5C(F)(F)F)cnc34)cc2Cl)CC1 [Example 206, (2S)-2-amino-1-[4-[2-chloro-4-[[3-[3-(trifluoromethyl)-1H-pyrazol-4-yl]imidazo[1,2-a]pyrazin-8-yl]amino]benzoyl]piperazin-1-yl]propan-1-one]"
13,0.205,"C[C@@H](N)C(=O)N1CCN(C(=O)c2ccc(Nc3nccn4c(-c5c[nH]nc5C(F)(F)F)cnc34)cc2Cl)CC1 [Example 207, (2R)-2-amino-1-[4-[2-chloro-4-[[3-[3-(trifluoromethyl)-1H-pyrazol-4-yl]imidazo[1,2-a]pyrazin-8-yl]amino]benzoyl]piperazin-1-yl]propan-1-one]"
14,0.232,"O=C(c1ccc(Nc2nccn3c(-c4c[nH]nc4C(F)(F)F)cnc23)cc1Cl)N1CCN(C(=O)[C@H]2CCNC2)CC1 [Example 208, [2-chloro-4-[[3-[3-(trifluoromethyl)-1H-pyrazol-4-yl]imidazo[1,2-a]pyrazin-8-yl]amino]phenyl]-[4-[(3S)-pyrrolidine-3-carbonyl]piperazin-1-yl]methanone]"
15,0.105,"O=C(c1ccc(Nc2nccn3c(-c4c[nH]nc4C(F)(F)F)cnc23)cc1Cl)N1CCN(C(=O)[C@@H]2CCCN2)CC1 [Example 209, [2-chloro-4-[[3-[3-(trifluoromethyl)-1H-pyrazol-4-yl]imidazo[1,2-a]pyrazin-8-yl]amino]phenyl]-[4-[(2S)-pyrrolidine-2-carbonyl]piperazin-1-yl]methanone]"
16,0.174,"N#CCn1cc(-c2cnc3c(Nc4ccc(C(=O)N5CCN(C(=O)[C@@H]6CCCN6)CC5)c(Cl)c4)nccn23)c(C(F)(F)F)n1 [Example 210, 2-[4-[8-[3-chloro-4-[4-[(2S)-pyrrolidine-2-carbonyl]piperazine-1-carbonyl]anilino]imidazo[1,2-a]pyrazin-3-yl]-3-(trifluoromethyl)pyrazol-1-yl]acetonitrile]"
